According to patent EP4817425A1, “COMPOSITION AND SOLID MOLDED BODY” (Nagase & Co., Ltd., priority 2023, dated 2025):

Assay: Screening test of saccharides: thickness of tableted product tableted to hardness 5 N
Assay type: physicochemical
Details: protein powder and saccharide weight ratio 1:1, tableted to hardness 5 N; compared among eight saccharides (Fig. 1)
Description: The tableting characteristics of various saccharides were confirmed, and saccharides suitable for the production of a solid molded body were screened. First, 2.0 g each (within an error of 0.003 g) of a protein powder (WPC392 manufactured by Fonterra Japan Limited) and any one of the saccharides shown below were weighed and mixed to prepare a composition containing 50 parts by weight each of the protein and the saccharide (weight ratio 1:1). Each of the obtained compositions was tableted with the tableting force appropriately adjusted so that the composition would have a hardness of 5 N after being tableted. As a result, a tableted product having a hardness of 5 N was obtained. The thickness of the obtained tableted product was measured. Note that in the Examples, the thicknesses of a tableted product and a solid molded body are values each measured using a caliper (ABS digimatic caliper CD-AX, manufactured by Mitutoyo Corporation), and the hardnesses of a tableted product and a solid molded body are values each measured using a load cell type tablet hardness tester (PC-30 manufactured by OKADA SEIKO CO., LTD.).

OC[C@H]1O[C@H](O[C@H]2[C@H](O)[C@@H](O)C(O)O[C@@H]2CO)[C@H](O)[C@@H](O)[C@@H]1O (mixture of isomers) [maltose, Maltose]
thickness of the tableted product: largest thickness
